Assay results: patent US12358896B2, “LRRK2 inhibitors and methods of making and using thereof” (DENALI THERAPEUTICS INC., priority 2019, dated 2025)

Assays:
MDR1 (P-glycoprotein) = target: T1, MDR1 (P-glycoprotein) (Homo sapiens, UniProt P08183); test: MDR1-MDCK permeability / efflux (Biological Example 3); type: in vitro ADME; conditions: MDR1-MDCK cells, pH 7.4; for efflux ratio at 1 μM: dog
T1 construct: expressed in transfected cells; host or cells: MDR1-MDCK cells
Method: The blood brain barrier (BBB) separates circulating blood from the extracellular fluid of the central nervous system (CNS). The passive membrane permeability (Papp) and MDR1 (P-glycoprotein) substrate efflux potential are determined using the MDR1-MDCK cell line as an in vitro model of the effective permeability of a compound through the BBB. A bidirectional assay was conducted in pre-plated MDR1-MDCK cells using a 12 or 96-well plate in the absence or presence of MDR1 inhibitor (GF120918 or Valspodar). Assays were run in duplicate in transport buffer (HBSS, pH 7.4) for 90 or 120 min (minutes) at 37° C., using a test article concentration of 1 μM. Monolayer integrity was confirmed using Lucifer yellow, and appropriate positive controls for passive permeability and MDR1 transport were included in each experiment. Following incubation, samples from donor and receiver compartments are removed and quenched with acetonitrile containing an appropriate internal standard (IS). Protein was precipitated by centrifugation for 10 min at 3220 g, and supernatants diluted in ultra-pure water (if necessary) prior to analysis by LC-MS/MS using appropriate MRM transitions for analytes and IS. Papp (apparent permeability expressed in cm/sec [centimeter/second]) values were calculated according to the following equation:
[formula] where VR is the solution volume in the receiver chamber (apical or basolateral side), Area is the surface area for the insert membrane), Time is incubation time expressed in seconds, CR is the peak area ratio (analyte/IS) in the receiver chamber, CA is the average of the initial and final concentrations in the donor chamber, and Co is the initial peak area ratio in the donor chamber. Papp was determined in both the apical to basolateral (A→B) and basolateral to apical (B→A) directions.
Monolayer efflux ratios (ER) were derived using the following equation: […]
Compounds with an MDR1-MDCK efflux ratio above 20 are not expected to cross the blood brain barrier.

[1] = target: T2, FLAG-tagged human LRRK2 with G2019S mutation (Homo sapiens, UniProt Q5S007, G2019S); test: Inhibition of pSer935 in HEK293 cells with expressed G2019S LRRK2 (Biological Example 4); type: cell-based; conditions: transfected 293T cells, 90 minutes compound treatment, MSD readout; read-out: HEK293T LRRK2 G2019S pS935
T2 construct: expressed in transfected cells; host or cells: HEK293 / 293T cells, transient transfection with pCMV-FLAG-G2019S
Method: In this assay, inhibition of phosphorylation of LRRK2 at residue serine 935 (pS935) by test compound was determined in HEK293 cells.
HEK293 cells were first transiently transfected with a plasmid harboring FLAG-tagged human LRRK2 cDNA with G2019S mutation (p.G2019S) under the control of CMV promoter for robust overexpression. The levels of phosphorylated Ser935 in G2019S expressing cells with or without compound treatment were measured by MSD using an anti-FLAG capture antibody and a phosho-specific anti-LRRK2 pS935 monoclonal detection antibody. The IC50 was determined by fitting a 10-point dose response data in duplicate with four parameter non-linear regression curve.
(Day 1) 293T cell seeding: 293T cells were seeded (1.4×10^6/well) into each well of a 6-well plate. After two days in culture, the cell number can grow into 5×10^6/well, so N+1 wells were seeded (enough for N 96 well assay plates).
(Day 2) 293T cell transfection: 5 μL of pCMV-FLAG-G2019S or pCMV-FLAG-WT LRRK2 (0.5 μg/μL) was added into 145 μL of DMEM medium, and mixed thoroughly by pipette up and down several times. 15 μL of SuperFect Transfection Reagent was added into samples, mixed thoroughly by pipetting up and down several times, and allowed to equilibrate at room temperature for 5-10 minutes. 0.5 mL of pre-warmed cell culture medium was added into samples, and mixed thoroughly by pipetting up and down several times. 650 μL of the mixture was added dropwise into each well of the 6 well plate, the plate was swirled to mix thoroughly, and incubated in a 37° C. incubator with a humidified atmosphere of 5% CO2 for 20-24 hours.
(Day 3) 293T cells seed into 96 well plates: Cells were harvested and resuspended in cell culture medium at 0.96×10^6 cells/mL density. 50 μL/well cells were plated onto 96-well cell culture plate (48,000 cells/well), and the plates were incubated in a 37° C. incubator with a humidified atmosphere of 5% CO2 for 20-24 hours.
(Day 4) Inhibitor Treatment and Cell Lysis: The compound destination plates were thawed at room temperature and centrifuged at 2000 rpm. 55 μL cell culture medium was added into compound destination plate, and the plate was warmed at 37° C.
50 μL of cell culture medium containing compounds was transferred into cell culture plate. Plates were incubated in a 37° C. incubator with a humidified atmosphere of 5% CO2 for 90 minutes, after which all of compound-containing medium was completely aspirated manually with 300 μL pipette. 100 μL/well of Lysis Buffer was added and the plates sealed, shaken at 4° C. for 30 minutes, and stored at −20° C. until usage.
(Day 5) MSD procedure: 2 μg/25 μL/well of FLAG antibody diluted in PBS was added into the MSD plate, incubated for two hours at room temperature or overnight at 4° C. (in Day 4). 50 μL (3.9 μg/μL) of FLAG antibody plus 2.5 mL PBS, per 96 well plate, or 50 μL (3.9 μg/μL) anti-FLAG antibody plus 5 mL PBS per 384 well plate. The plates were centrifuged at 1000 rpm for 10 seconds and shaken with a plate shaker for 10 seconds.
Anti-FLAG antibody was discarded, and the wells were washed using multidrop, low speed, two times with 300 μL/well of wash buffer for a 96 well plate or three times with 70 μL/well of wash buffer for a 384 well plate. 50 μL/well of block buffer for a 96 well plate, or 25 μL/well of block buffer for a 384 well plate, was added and the plates were incubated for two hours at room temperature. The Block buffer was then discarded and the wells washed two times using multidrop, low speed, with 300 μL/well of wash buffer for a 96 well plate, or three times with 70 μL/well of wash buffer for a 384 well plate.
25 μL of cell lysate was transferred into a 96 well MSD plate, or 12.5 μL of cell lysate into 384 well MSD plate, and the plates were incubated for one hour at room temperature.
Note: The cell lysate should be thawed one hour prior to this step, the plate centrifuged at 1000 rpm for one minute, shaken for 30 seconds, and then unsealed for lysate transfer. […]

T1 sequence (P08183 whole entry): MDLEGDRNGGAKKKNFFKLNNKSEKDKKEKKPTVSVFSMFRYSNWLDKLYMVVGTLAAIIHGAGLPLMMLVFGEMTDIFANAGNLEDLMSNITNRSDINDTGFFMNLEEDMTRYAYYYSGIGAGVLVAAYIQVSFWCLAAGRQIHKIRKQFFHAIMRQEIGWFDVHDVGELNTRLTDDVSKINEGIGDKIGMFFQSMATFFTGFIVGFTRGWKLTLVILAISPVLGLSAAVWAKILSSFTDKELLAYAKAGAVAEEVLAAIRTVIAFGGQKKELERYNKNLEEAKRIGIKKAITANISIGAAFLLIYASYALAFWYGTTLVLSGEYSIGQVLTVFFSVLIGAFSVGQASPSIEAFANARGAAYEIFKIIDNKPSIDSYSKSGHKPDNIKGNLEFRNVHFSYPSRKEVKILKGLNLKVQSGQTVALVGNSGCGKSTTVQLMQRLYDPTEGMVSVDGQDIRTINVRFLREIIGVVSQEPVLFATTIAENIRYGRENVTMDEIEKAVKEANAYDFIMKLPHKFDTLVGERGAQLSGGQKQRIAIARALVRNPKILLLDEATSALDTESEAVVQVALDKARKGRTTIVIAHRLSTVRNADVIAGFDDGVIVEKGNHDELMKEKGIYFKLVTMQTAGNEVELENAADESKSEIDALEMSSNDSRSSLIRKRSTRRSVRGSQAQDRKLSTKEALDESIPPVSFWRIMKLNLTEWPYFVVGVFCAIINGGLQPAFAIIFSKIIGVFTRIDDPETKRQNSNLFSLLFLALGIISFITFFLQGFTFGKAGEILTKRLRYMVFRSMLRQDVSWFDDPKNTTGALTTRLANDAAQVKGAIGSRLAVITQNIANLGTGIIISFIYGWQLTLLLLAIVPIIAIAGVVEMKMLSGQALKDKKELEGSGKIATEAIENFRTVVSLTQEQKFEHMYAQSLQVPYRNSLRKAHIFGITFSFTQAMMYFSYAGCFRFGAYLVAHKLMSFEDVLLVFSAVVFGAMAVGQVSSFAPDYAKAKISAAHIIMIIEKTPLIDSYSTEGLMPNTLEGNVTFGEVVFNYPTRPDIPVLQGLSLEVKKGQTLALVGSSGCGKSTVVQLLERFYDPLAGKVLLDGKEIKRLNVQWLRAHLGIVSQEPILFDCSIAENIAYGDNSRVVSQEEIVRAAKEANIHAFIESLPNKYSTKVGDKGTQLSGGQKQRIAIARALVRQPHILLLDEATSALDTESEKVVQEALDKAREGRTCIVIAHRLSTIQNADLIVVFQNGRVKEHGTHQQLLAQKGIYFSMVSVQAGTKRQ
T2 sequence (Q5S007 whole entry G2019S): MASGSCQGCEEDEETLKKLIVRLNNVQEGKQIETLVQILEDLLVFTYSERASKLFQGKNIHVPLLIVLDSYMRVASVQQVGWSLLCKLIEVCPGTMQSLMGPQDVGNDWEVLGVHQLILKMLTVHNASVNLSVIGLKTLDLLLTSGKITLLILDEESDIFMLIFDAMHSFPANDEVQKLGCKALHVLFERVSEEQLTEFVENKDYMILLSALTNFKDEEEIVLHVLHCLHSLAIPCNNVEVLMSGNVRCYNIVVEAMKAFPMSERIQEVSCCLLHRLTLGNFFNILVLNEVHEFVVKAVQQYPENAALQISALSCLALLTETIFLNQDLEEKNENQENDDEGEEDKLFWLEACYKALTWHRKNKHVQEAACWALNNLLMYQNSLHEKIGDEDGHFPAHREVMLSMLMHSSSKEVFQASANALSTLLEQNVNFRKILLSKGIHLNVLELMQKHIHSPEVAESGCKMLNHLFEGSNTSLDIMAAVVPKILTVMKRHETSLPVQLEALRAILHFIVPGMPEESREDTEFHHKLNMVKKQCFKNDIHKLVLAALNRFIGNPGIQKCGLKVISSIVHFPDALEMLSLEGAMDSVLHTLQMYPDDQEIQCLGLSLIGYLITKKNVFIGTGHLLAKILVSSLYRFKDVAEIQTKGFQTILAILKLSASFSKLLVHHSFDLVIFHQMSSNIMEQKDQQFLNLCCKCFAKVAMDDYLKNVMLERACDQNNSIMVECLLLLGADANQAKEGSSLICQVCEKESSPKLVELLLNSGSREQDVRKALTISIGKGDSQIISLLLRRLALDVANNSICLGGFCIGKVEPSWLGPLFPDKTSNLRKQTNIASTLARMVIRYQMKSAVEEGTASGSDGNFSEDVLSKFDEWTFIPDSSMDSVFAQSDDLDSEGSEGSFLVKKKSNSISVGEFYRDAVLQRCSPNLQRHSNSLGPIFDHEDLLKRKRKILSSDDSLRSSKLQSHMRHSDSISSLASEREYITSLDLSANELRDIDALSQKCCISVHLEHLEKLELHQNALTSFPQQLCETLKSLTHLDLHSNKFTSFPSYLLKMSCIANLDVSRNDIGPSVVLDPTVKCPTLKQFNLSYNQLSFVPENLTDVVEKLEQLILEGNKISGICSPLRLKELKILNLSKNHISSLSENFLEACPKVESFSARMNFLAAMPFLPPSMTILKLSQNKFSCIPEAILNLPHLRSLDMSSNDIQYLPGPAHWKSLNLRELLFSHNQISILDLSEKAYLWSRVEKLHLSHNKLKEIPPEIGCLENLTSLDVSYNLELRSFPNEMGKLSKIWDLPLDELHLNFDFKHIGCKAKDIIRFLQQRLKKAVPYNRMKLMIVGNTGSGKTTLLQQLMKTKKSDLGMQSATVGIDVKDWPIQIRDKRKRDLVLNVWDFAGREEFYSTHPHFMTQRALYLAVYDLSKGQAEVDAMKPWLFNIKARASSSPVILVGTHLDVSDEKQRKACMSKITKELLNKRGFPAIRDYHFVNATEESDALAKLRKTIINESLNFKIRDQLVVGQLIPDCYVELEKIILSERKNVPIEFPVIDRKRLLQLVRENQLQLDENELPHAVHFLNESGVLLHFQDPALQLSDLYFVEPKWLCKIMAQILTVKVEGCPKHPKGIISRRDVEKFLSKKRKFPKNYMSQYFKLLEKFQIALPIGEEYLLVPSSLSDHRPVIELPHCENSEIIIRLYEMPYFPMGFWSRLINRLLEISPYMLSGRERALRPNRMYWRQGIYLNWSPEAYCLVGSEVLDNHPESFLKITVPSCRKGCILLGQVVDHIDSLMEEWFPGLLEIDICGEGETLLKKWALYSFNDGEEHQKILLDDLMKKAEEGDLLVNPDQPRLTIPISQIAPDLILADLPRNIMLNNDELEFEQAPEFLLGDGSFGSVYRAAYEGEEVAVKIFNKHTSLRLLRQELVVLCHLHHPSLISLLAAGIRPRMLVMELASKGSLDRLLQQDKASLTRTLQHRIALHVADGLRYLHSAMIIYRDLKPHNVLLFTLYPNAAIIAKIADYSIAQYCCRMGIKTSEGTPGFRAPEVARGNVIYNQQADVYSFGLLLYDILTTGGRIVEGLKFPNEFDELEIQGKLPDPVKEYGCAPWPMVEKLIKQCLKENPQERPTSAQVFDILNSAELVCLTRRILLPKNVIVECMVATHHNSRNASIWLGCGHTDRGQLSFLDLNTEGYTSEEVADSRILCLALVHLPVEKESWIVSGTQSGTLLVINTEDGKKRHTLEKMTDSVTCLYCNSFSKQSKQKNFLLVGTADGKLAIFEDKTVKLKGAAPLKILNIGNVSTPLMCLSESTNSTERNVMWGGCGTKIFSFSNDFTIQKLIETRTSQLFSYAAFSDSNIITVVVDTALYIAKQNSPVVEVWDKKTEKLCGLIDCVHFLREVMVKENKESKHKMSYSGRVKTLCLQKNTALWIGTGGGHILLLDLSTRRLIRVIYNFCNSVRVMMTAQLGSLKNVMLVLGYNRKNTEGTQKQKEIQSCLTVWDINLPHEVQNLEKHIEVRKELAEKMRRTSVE

| efflux ratio at 1 μM (MDR1 (P-glycoprotein)) | MDCK-MDR1 Efflux Avg (MDR1 (P-glycoprotein); efflux ratio, 1 μM) | IC50 [1] | Structure (SMILES) |
| --- | --- | --- | --- |
| 110 | 110 | 1.83 nM | CCNc1nc(Nc2cn([C@H]3C[C@H]3C(N)=O)nc2C2CC2)ncc1C(F)(F)F (single isomer, unassigned) [Example 7, (1,2-cis)-2-(3-cyclopropyl-4-((4-(ethylamino)-5-(trifluoromethyl)pyrimidin-2-yl)amino)-1H-pyrazol-1-yl)cyclopropanecarboxamide] |
| 144 | – | 11.8 nM | CCNc1nc(Nc2cc([C@H]3C[C@H]3C(N)=O)nn2C2CC2)ncc1C(F)(F)F [Comparative Example A, reference compound] |
